Legend:
pCRKL in K562 cells = test: pCRKL ELISA assay in K562 cells; type: cell-based; conditions: Homo sapiens, 1.5 h, 90 minutes incubation, read-out: pCRKL ELISA, Cell Line IC50 (nM) K562
Experimental: K562 or Ba/F3 ABL T315I cells (2.0*10^5 cells/100 μl/well) were seeded in 96 well (Corning, cat #3799). Compounds were dissolved in DMSO, serially diluted in DMSO and then were added, mixed, and incubated for 90 minutes at 37° C., 5% CO2. Following the 90-minute incubation, plates were centrifuged for 5 min at 3000 RPM and supernatant was removed from each well. Cells were washed 3 times with 150 μl PBS prior to addition of 100 μl cell RIPA lysis buffer (Boston BioProducts, cat #BP-115D) supplied with 1× complete ULTRA cocktail inhibitor (Roche, 05892791001) and 1× PhosSTOP Phosphatase Inhibitor Cocktail Tablets (Roche, 04906837001). Cells were incubated with lysis buffer for 1 hour at 4° C. prior to storage at −80C.
A capture antibody able to detect phosphorylated and non-phosphorylated CRKL (R&D Systems, cat #AF5127) was added to Meso Scale Discovery (MSD) standard bind plates (MSD, cat #L15XA-3) at 5 ug/mL and incubated at 4° C. overnight. The next day, plates were washed with PBS+ 0.05% Tween20 (PBST) and 150 μl of 5% BSA blocking solution was added for 1 hour at room temperature with shaking. Plates were washed with PBST. Lysates were thawed and 30 μl of lysate was added to the MSD plates and incubated for 2 hours at room temperature with shaking. MSD plates were washed with PBST and 30 μl of a detection antibody that binds phosphorylated pCRKL (R&D Systems, cat #MAB6910) was added at 1 ug/mL to each well. Plates were incubated for 1 hour at room temperature with shaking. Plates were washed with PBST prior to addition of 30 μl of a sulfo tagged goat anti mouse detection antibody (MSD cat #R32AC-1). Plates were incubated for 1 hour at room temperature with shaking. Plates were washed with PBST prior to addition of 150 ul of 1×MSD read buffer T (MSD, cat #R92TC-2). Electrochemiluminescence (ECLU) was read on an MSD plate reader (Meso Scale Discovery). The remaining activity by calculated as follows: % Relative activity=100× (ELCUsample−ECLULC)/(ECLUHC−ECLULC). The low and high controls (LC/HC) are generated from lysate from wells without cells or with cells treated with 0.1% DMSO, respectively. IC50 values were calculated using XLFit software using a nonlinear regression model with a sigmoidal dose response and are shown in Table 4 and Table 5 below.

ABL1 (T315I) = ABL1 (T315I) (Homo sapiens, UniProt P00519, T315I); test: Luminescence-based ABL kinase assay (300 μM ATP), ADP-Glo; type: biochemical
HL60 cells = test: HL60 cell proliferation assay (CellTiter-Glo); type: cell-based; conditions: Homo sapiens, HL-60, HL60 cell viability, 72 hours, read-out: Cell Line (IC50, nM) HL60
ABL1 = target: T1, ABL1 (Homo sapiens, UniProt P00519); test: Luminescence-based ABL kinase assay (300 μM ATP), ADP-Glo; type: biochemical
T1 construct: purchased Carna Biosciences
Text: Compounds were serially diluted in DMSO. […] Luminescence signal positively correlates with kinase activity.

K562 cells = test: K562 cell proliferation assay (CellTiter-Glo); type: cell-based; conditions: Homo sapiens, K562 cell viability, 72 hours, read-out: Cell Line (IC50, nM) K562

SMILES | IC50 (pCRKL in K562 cells) [nM] | IC50 (ABL1 (T315I)) [nM] | IC50 (HL60 cells) [nM] | IC50 (ABL1) [nM] | IC50 (K562 cells) [nM]
COc1ccnc(OC)c1-c1cc2cc(NC(=O)[C@H]3C[C@@H]3CN3CCN(C)CC3)ncc2n1C (single isomer, unassigned) [Compound 120] | 108 | 39.8 | > 10000 | 27.1 | 47.6
COc1ccnc(OC)c1-c1cc2cc(NC(=O)[C@H]3C[C@@H]3CN3CCNCC3)ncc2n1C (single isomer, unassigned) [Compound 138] | 254 | 24.4 | – | 12.8 | –
[2H]C([2H])([2H])Oc1ncccc1-c1cc2cc(NC(=O)[C@@H]3C[C@@H]3F)ncc2n1C [Compound 32, (1S,2S)-2-fluoro-N-(2-(2-(methoxy-d3)pyridin-3-yl)-1-methyl-1H-pyrrolo[2,3-c]pyridin-5-yl)cyclopropane-1-carboxamide] | 189 | 83.1 | 5120 | 28.6 | 182
COc1ccccc1-c1cc2cc(NC(=O)NCCN3CCN(C)CC3)ncc2n1C [Compound 79, 3-[2-(2-methoxyphenyl)-1-methylpyrrolo[2,3-c]pyridin-5-yl]-1-[2-(4-methylpiperazin-1-yl)ethyl]urea] | 594 | 77 | > 10000 | 79.2 | 329
[2H]C([2H])([2H])Oc1ncnc(OC([2H])([2H])[2H])c1-c1cc2cc(NC(=O)[C@@H]3C[C@@H]3F)ncc2n1C [Compound 95, (1S,2S)-N-(2-(4,6-bis(methoxy-d3)pyrimidin-5-yl)-1-methyl-1H-pyrrolo[2,3-c]pyridin-5-yl)-2-fluorocyclopropane-1-carboxamide] | 66.3 | 43.5 | 3550 | 12.7 | 47.8
Cn1c(-c2cnccc2OC2CC2)cc2cc(NC(=O)[C@@H]3C[C@@H]3F)ncc21 [Compound 116, (1S,2S)-N-[2-(4-cyclopropoxypyridin-3-yl)-1-methylpyrrolo[2,3-c]pyridin-5-yl]-2-fluorocyclopropane-1-carboxamide] | – | 1190 | 9310 | 66.9 | 256
Cn1c(-c2ccncc2OC2CC2)cc2cc(NC(=O)[C@@H]3C[C@@H]3F)ncc21 [Compound 117, (1S,2S)-N-[2-(3-cyclopropoxypyridin-4-yl)-1-methylpyrrolo[2,3-c]pyridin-5-yl]-2-fluorocyclopropane-1-carboxamide] | – | 662 | 4180 | 43.3 | 141
COc1ncnc(OC)c1-c1cc2cc(NC(=O)C3CC3)ncc2n1C [Compound 118, N-[2-(4,6-dimethoxypyrimidin-5-yl)-1-methylpyrrolo[2,3-c]pyridin-5-yl]cyclopropanecarboxamide] | – | 108 | 929 | 35.3 | 71.4
COc1nc(C)ncc1-c1cc2cc(NC(=O)[C@@H]3C[C@@H]3F)ncc2n1C [Compound 141, (1S,2S)-2-fluoro-N-[2-(4-methoxy-2-methylpyrimidin-5-yl)-1-methylpyrrolo[2,3-c]pyridin-5-yl]cyclopropane-1-carboxamide] | – | 1990 | > 10000 | 316 | 381
CCOc1ncc(F)cc1-c1cc2cc(NC(=O)[C@@H]3C[C@@H]3F)ncc2n1C [Compound 143, (1S,2S)-N-[2-(2-ethoxy-5-fluoropyridin-3-yl)-1-methylpyrrolo[2,3-c]pyridin-5-yl]-2-fluorocyclopropane-1-carboxamide] | – | 299 | 9800 | 74.9 | 289

The next molecules have a lower IC50 (ABL1 (T315I)) than those just listed; values first:

IC50 (pCRKL in K562 cells) [nM] | IC50 (ABL1 (T315I)) [nM] | IC50 (HL60 cells) [nM] | IC50 (ABL1) [nM] | IC50 (K562 cells) [nM] | SMILES
303 | 8.99 | 2930 | 30.3 | 174 | COc1ccc(F)cc1-c1cc2cc(NC(=O)[C@@H]3C[C@@H]3F)ncc2n1C [Compound 26, (1S,2S)-2-fluoro-N-[2-(5-fluoro-2-methoxyphenyl)-1-methylpyrrolo[2,3-c]pyridin-5-yl]cyclopropane-1-carboxamide]
553 | 1.85 | 761 | 40.7 | 112 | COc1cccc(F)c1-c1cc2cc(NC(=O)[C@@H]3C[C@@H]3F)ncc2n1C [Compound 27, (1S,2S)-2-fluoro-N-[2-(2-fluoro-6-methoxyphenyl)-1-methylpyrrolo[2,3-c]pyridin-5-yl]cyclopropane-1-carboxamide]
83.2 | 9.48 | 514 | 10.7 | 143 | Cn1c(-c2cccc3c2CCN3)cc2cc(NC(=O)[C@@H]3C[C@@H]3F)ncc21 [Compound 31, (1S,2S)-N-[2-(2,3-dihydro-1H-indol-4-yl)-1-methylpyrrolo[2,3-c]pyridin-5-yl]-2-fluorocyclopropane-1-carboxamide]
416 | 4.23 | 1200 | 51.3 | 109 | COc1ccccc1-c1c(C)c2cnc(NC(=O)[C@@H]3C[C@@H]3F)cc2n1C [Compound 52, (1S,2S)-2-fluoro-N-(2-(2-methoxyphenyl)-1,3-dimethyl-1H-pyrrolo[3,2-c]pyridin-6-yl)cyclopropane-1-carboxamide]
574 | 8.3 | > 10000 | 82.4 | 90.9 | COc1ccccc1-c1c(C)c2cnc(NC(=O)[C@H]3C[C@H]3F)cc2n1C [Compound 53, (1R,2R)-2-fluoro-N-[2-(2-methoxyphenyl)-1,3-dimethylpyrrolo[3,2-c]pyridin-6-yl]cyclopropane-1-carboxamide]
151 | 6.51 | 957 | 51.9 | 51.1 | COc1cccc(F)c1-c1c(C)c2cnc(NC(=O)[C@@H]3C[C@@H]3F)cc2n1C [Compound 54, (1S,2S)-2-fluoro-N-(2-(2-fluoro-6-methoxyphenyl)-1,3-dimethyl-1H-pyrrolo[3,2-c]pyridin-6-yl)cyclopropane-1-carboxamide]
29.8 | 22.2 | 548 | 2.26 | 6.01 | COc1nccc(OC2CC2)c1-c1cc2cc(NC(=O)[C@@H]3C[C@@H]3F)ncc2n1C [Compound 90, (1S,2S)-N-[2-(4-cyclopropoxy-2-methoxypyridin-3-yl)-1-methylpyrrolo[2,3-c]pyridin-5-yl]-2-fluorocyclopropane-1-carboxamide]
– | 1.76 | 159 | 2.38 | 9.35 | COc1cccc(OC)c1-c1cc2cc(NC(=O)[C@@H]3C[C@@H]3F)ncc2n1C [Compound 119, (1S,2S)-N-[2-(2,6-dimethoxyphenyl)-1-methylpyrrolo[2,3-c]pyridin-5-yl]-2-fluorocyclopropane-1-carboxamide]
– | 17.5 | 1690 | 18.6 | 59.3 | CCc1ccnc(OC)c1-c1cc2cc(NC(=O)[C@@H]3C[C@@H]3F)ncc2n1C [Compound 142, (1S,2S)-N-[2-(4-ethyl-2-methoxypyridin-3-yl)-1-methylpyrrolo[2,3-c]pyridin-5-yl]-2-fluorocyclopropane-1-carboxamide]

— patent publication US12240846B2 (Enliven Inc., priority 2020, dated 2025)
